Results reported in patent US5447916A, “Peptoid alpha-1 adrenergic receptor ligands” (Chiron Corporation, priority 1993, dated 1995).

Molecular target: α1-adrenergic receptors
Assay: 3H-Prazosin binding assay on rat forebrain membranes
Settings: for IC50 / Ki: 0.5 nM 3H-Prazosin; for Ki: 1 hr at room temperature; for Percent Inhibition: Inhibition at 100 nM (100 nM receptor concentration as printed), 3H-Prazosin
Procedure: Preparation of Rat Forebrain Membranes:
Rat brains were purchased from Animal Technologies, Tyler, Tex., and shipped on wet ice within 24 hours after being harvested. The forebrains were dissected and homogenized with a Tissue Tearor in 50 mM Tris, pH 7.5, containing 20 mM NaCl, 5 mM EGTA, 2 mM MgCl2, 21 μg/mL aprotinin, 0.5 mg/L leupeptin, 0.7 mg/L pepstatin, 0.2 mM PMSF. Each brain is homogenized in approximately 5 mL of this buffer. The homogenate is then spun at 1000 RPM (75×g) in a Sorval RC-5B centrifuge (SS-34 rotor) for 10 min. The pellets are discarded and the supernatants then respun at 17,000 RPM (22,500×g) for 15 min. The pellets were then resuspended in the same buffer as above containing 5 mM EDTA and no MgCl2 (1 brain/mL). Membranes were stored in 1 mL aliquots at -70° C.
Thawed membranes were dispersed into a homogenous solution by passing them through a 22 gauge needle 5 times. To initiate the assay, 50 μL of membrane were dispensed into a plastic 12×75 mm tube containing 1 mL of 50 mM Tris, pH 7.5, 0.5 nM ^3 H-Prazosin (New England Nuclear), and the compounds to be tested. Nonspecific binding was determined as ^3 H-Prazosin bound in the presence of 5 μM unlabeled prazosin. Incubation was for 1 hr at room temperature. Unbound radioactivity was removed by rinsing the membranes on Whatman GF/B glass fiber filters. Each filter was washed 3 times with 3 mL of 50 mM Tris, pH 7.5, 4° C. Filters were soaked overnight in 5 mL of Beckman ReadySafe scintillation cocktail then counted for one minute in a Wallac 1409 liquid scintillation counter.

Row | Molecule | IC50 [nM] | Ki [nM] | Percent Inhibition [%]
1 | NC(=O)CN(CCc1ccccc1)C(=O)CN(C(=O)CNCCc1ccc(O)cc1)c1ccc(-c2ccccc2)cc1 [Nhtyr--Nbiph--Nhphe, Nhtyr-Nbiph-Nhphe] | 19 | 7 | 
2 | Bz-Nhphe-Nbiph-Nhphe [Bz--Nhphe--Nbiph--Nhphe] |  |  | 24.8
3 | Nhtyr-Npop-Nhphe [Nhtyr--Npop--Nhphe] | 490 | 140 | 
4 | Noco-Nbiph-Nhphe [Noco--Nbiph--Nhphe] |  |  | 23.6

Other lines, results leading:

Row | IC50 [nM] | Ki [nM] | Percent Inhibition [%] | Molecule
5 |  |  | 20.3 | Nhtyr- Npbiph-Nhphe [Nhtyr--Npbiph--Nhphe]
6 | 1400 | 313 |  | Nhtyr--Nbiph--Nbhm
7 |  |  | 21.2 | Nhtyr-Nbiph-Nmhphe [Nhtyr--Nbiph--Nmhphe]
8 |  |  | 48.3 | Nhtyr-Nbiph-Nphphe [Nhtyr--Nbiph--Nphphe]
9 |  |  | 22.7 | Nphtyr-Nbiph-Nhphe [Nphtyr--Nbiph--Nhphe]
10 |  |  | 53.9 | Nzhphe-Nbiph-Nhphe [Nzhphe--Nbiph--Nhphe]
